Article PMC8389614, “A Comparison of Acute Pharmacological Effects of Methylone and MDMA Administration in Humans and Oral Fluid Concentrations as Biomarkers of Exposure” (Biology, 2021)
Read-outs that look alike come from different tables or passages of the source.

Key:
[1] = cited from earlier work; for Median overall OF/B ratio: oral fluid vs plasma
[2] = Oral fluid to blood (OF/B) concentration ratio and plasma concentration; conditions: human, 100 mg
5-HT2A receptors = test system: 5-HT2A receptors; parameters: method as in PMID 25237120, PMID 23583454; conditions: significantly lower potencies than MDMA; cited from earlier work
CYP2D6 = conditions: limited contribution of CYP1A2, CYP2B6, CYP2C19; cited from earlier work

Row | SMILES | Maximum oral fluid to blood (OF/B) ratio ([1]; at 1.5 h after a 100 mg dose) | Median overall OF/B ratio ([1]; high dose 1.6 mg/kg) | Median overall OF/B ratio ([1]; low dose 1.0 mg/kg) | Kp [2] | Affinity for binding 5-HT2A receptors (5-HT2A receptors) | Enzymes metabolizing the substance in the liver (CYP2D6)
1 | CNC(C)Cc1ccc2c(c1)OCO2 (stereo not drawn) [MDMA, 3,4-methylenedioxymethamphetamine] | 18.1 ± 7.9 | 6.0 | 5.2 | 22.4 |  | 
2 | CNC(C)C(=O)c1ccc2c(c1)OCO2 (stereo not drawn) [Methylone, 3,4-methylenedioxymethcathinone] |  |  |  |  | some affinity | principally by the enzymatic activity of CYP2D6
